Here are results for three molecules from US7138246B2, “Methods for identifying or screening for agents that modulate 17β-HSD3” (Bristol-Myers Squibb Company, priority 2004, dated 2006).

Assay [1] concerns the target T1, 17β-HSD3 (Homo sapiens, UniProt P37058).
T1 sequence (P37058 1-310): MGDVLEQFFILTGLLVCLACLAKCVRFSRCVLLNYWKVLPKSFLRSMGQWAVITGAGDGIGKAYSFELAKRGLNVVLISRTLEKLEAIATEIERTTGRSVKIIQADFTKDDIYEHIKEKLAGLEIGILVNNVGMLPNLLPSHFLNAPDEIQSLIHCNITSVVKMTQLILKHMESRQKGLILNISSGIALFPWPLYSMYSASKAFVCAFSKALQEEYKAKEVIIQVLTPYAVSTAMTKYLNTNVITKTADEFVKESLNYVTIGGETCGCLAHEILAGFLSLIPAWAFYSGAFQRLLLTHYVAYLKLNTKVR
Description: 17β-HSD3 SEAP assay (PSA reporter) in MDA MB 453/17β-HSD3 cells. Type of assay: cell-based. Set-up: expressed in transfected cells. The following applies: MDA-MB453-17β-HSD3 cells, PSA-SEAP reporter, read-out: IC50, 17β-HSD3 cell based activity. As for the experimental part:
Cultured MDA MB 453/17β-HSD3 cells were trypsinized, spun at 1000 rpm for 10 minutes, and resuspended in DMEM/10% cFBS supplemented with 5 mM BES at a concentration of 4×10^7 cells per mL. The cells (aliquots of 1×10^7 cells) were then transiently transfected with 3 μg of the PSA-SEAP construct by electroporation at 0.22 kVolts and 960 μFD with a time constant of […]. After a short recovery period, the cells were spun down and resuspended in DMEM/10% cFBS and plated into 96-well tissue culture plates (5×10^5 cells per well in 50 μL). After overnight adherence, the compounds were diluted in DMEM/10% and cFBS was added to the cells. 24 hours later, the medium was removed, fresh media containing the compounds was added in the presence of 10 nM Androstenedione, and this mixture was allowed to incubate for 24 hours. 25 μL of the culture supernatant was then removed and plated into 96-well black Optiplates (Perkin Elmer) for SEAP measurement as described by the reagent manufacturer (Tropix). Briefly, the supernatant was heat inactivated at 65° C. for 30 minutes and then allowed to cool to room temperature. Assay buffer (25 μL, Tropix) was then added and allowed to mix for 5 minutes followed by the addition of the Reaction buffer (25 μL, Tropix) and the plates were then incubated for 20 minutes in the dark. Plates were then read using a Packard Instruments TopCount with luminescent detection and signal was captured for 10 seconds per well and photon emission (cps) was averaged. A standard MTS assay (Promega) as described by the manufacturer, was performed in parallel to normalize the data based on cell numbers. Data analysis including percent inhibition and IC50 determination, based on 10 point serially diluted curves in duplicate, was then performed using Microsoft Excel and XLFit.
The analysis of 17β-HSD3 steroid conversion by TLC is hampered by the limitation to examine large numbers of compounds. […] To test this system, a prostate specific antigen (PSA) reporter plasmid was transfected into MDA-MB453 cells stably expressing 17β-HSD3 and stimulated with different concentrations of androstenedione (FIG. 5B).
To evaluate the suitability of this cellular assay for monitoring 17β-HSD3 cell based activity, the inhibitory effects of 18β-glycyrrhetinic acid and […] were examined.

Assay [2] has as its target T1, 17β-HSD3. Description: 17β-HSD3 scintillation proximity assay (SPA). The class given is biochemical. More on the design: made in house; CHAPS-solubilised 100,000 x g supernatant. The following applies: for 17β-HSD3 inhibitory activity in the SPA: FIG. 3B. As for the experimental part: HEK293/17β-HSD3 cells were harvested by scraping or treatment with Cell Dissociation Buffer (Invitrogen) and collected in ice cold Phosphate Buffered Saline (PBS) containing a protease inhibitor cocktail (Complete Tabs, Roche Diagnostics). The cells were then pelleted by centrifugation at 1000 rpm and washed once more in the same buffer. The cells were then resuspended in 2× the cell pellet volume with ice cold lysis buffer (40 mM Tris-HCl pH7.5, 2 mM DTT, 1 mM EDTA, 10% Glycerol (v/v), 0.5% CHAPS (w/v), 1M 1-(3-sulfopropyl)pyridinium hydroxide, Complete Tab(s)) and dounce homogenized on ice. The crude lysate was then incubated on ice for 60 minutes to allow for membrane protein solubilization, followed by centrifugation at 100,000×g for 60 minutes at 4° C. The supernatant was then removed and dialyzed overnight at 4° C. against the enzyme storage buffer (40 mM Tris-HCl pH 7.5, 40 mM KCl, 2 mM DTT, 1 mM EDTA, 20% Glycerol (v/v), Complete Tab(s)). Protein concentration was determined by the Bradford assay, the enzyme was aliquotted, and stored at −80° C. Activity was assessed using the SPA described below.
SPA beads conjugated to anti-mouse IgG were incubated overnight in SPA Bead Buffer (50 mM Tris pH 8.0, 10% Glycerol (v/v)), with anti-Testosterone monoclonal antibody (2 μg antibody per 1 mg of SPA beads) under gentle rotation. The antibody saturated bead complex was then spun down at 500 rpm for 10 minutes at 4° C. and the beads were resuspended in SPA Bead Buffer at a final concentration of 0.5 mg/160 μL. The anti-T/SPA Beads were then stored at 4° C. until needed. Enzymatic assays were conducted in 30 μL total reaction volumes in 96-well white Optiplates (Perkin Elmer). The reaction buffer consisted of 50 mM MES pH 6.0, 2 mM DTT, 0.1% CHAPS, 3 mM NADPH, 10% Glycerol (v/v), 850 nM 4-Androstene-3,17-Dione, and 50 nM [3H]4-Androstene-3,17-Dione (Specific Activity 70–110Ci/mmol). Compounds were diluted such that the final concentration of ethanol and DMSO would not exceed 3% (v/v) and 1% (v/v) respectively, corresponding to concentrations that had little or no effect on enzymatic activity (data not shown). Previously prepared and frozen 17β-HSD3 enzyme was diluted into ice cold buffer containing 50 mM Mes, 40 mM KCl, 2 mM DTT, 1 mM EDTA, and 10% glycerol (v/v) and added last to the reaction mixture. The reaction was allowed to proceed for 60 minutes at room temperature and was stopped by the addition of 10 μL of 0.1N HCl. After the reactions were stopped, an excess of the anti-T/SPA Beads (0.5 mg) were added to each well to a final volume of 200 μL. The plates were sealed and shaken at ˜200 rpm on an orbital shaker at room temp for at least 90 minutes or overnight at 4° C. After allowing the beads to settle, the amount of [3H]Testosterone produced in each well was determined by scintillation counting on a Perkin Elmer TopCount instrument and collected as DPMs. The data was then analyzed and percent inhibition and/or IC50 values, based on 10 point serially diluted curves in duplicate or triplicate, were calculated using Microsoft Excel and XLFit programs. […] Input samples and unbound supernatants, from the enzymatic reactions, were quantitated by scintillation counting to aid in the calculation of bound versus free testosterone produced. Km values were calculated using the Lineweaver-Burke formula and plots where 1/v=(Km+[s])/(Vmax [s]). […]

A word on the IC50: it is the concentration that inhibits the measured activity by half. As to `C[C@]12C=CC(=O)C=C1C(=O)C[C@@H]1[C@@H]2CC[C@]2(C)C(=O)CC[C@@H]12` [1,4-androstadiene-1,6,17-trione], the IC50 at 17β-HSD3 [1] (FIG. 5C) was found to be 1600 nM. For the same molecule, at 17β-HSD3 [2], the “17β-HSD3 inhibitory activity in the SPA” value was “potent inhibitory activity”.

On to `COc1ccccc1CCNC(=O)c1cc(Oc2ccccc2)ccc1NC(=O)c1ccc(O)c(Cl)c1` [2-[(3-chloro-4-hydroxybenzoyl)amino]-N-[2-(2-methoxyphenyl)ethyl]-5-phenoxybenzamide], for which the IC50 at 17β-HSD3 [1] was found to be 300 nM; at 17β-HSD3 [2] (read-out: IC50, 17β-HSD3 biochemical activity), 60 nM.

As to `CC1(C)[C@@H](O)CC[C@]2(C)[C@H]3C(=O)C=C4[C@@H]5C[C@@](C)(C(=O)O)CC[C@]5(C)CC[C@@]4(C)[C@]3(C)CC[C@@H]12` [18β-glycyrrhetinic acid], the IC50 on 17β-HSD3 [1] (FIG. 5C) is 3800 nM. The “17β-HSD3 inhibitory activity in the SPA” value on 17β-HSD3 [2] is listed as “potent inhibitory activity”.
